Data published in patent US20050096294A1, “Novel anti-coagulant” (priority 2003, published 2005).

Legend:
Type in all cases: biochemical, human
[1] = system: blood immediately after collected from a normal person; experiment: Normal blood coagulation time; settings: for Normal blood coagulation time: standard control 42.5
Procedure: (3) Normal Blood Coagulation Time (Second):
The sulfated polysaccharide 50 μl was separately put (the concentration was adjusted so that the final concentration was a measured concentration) in advance into plastic test tubes (3.3 ml blood collected tube, manufactured by IWAKI Co., Ltd.), and each 1 ml of blood immediately after collected from a normal person was put into the test tubes containing the sulfated polysaccharide and quickly mixed, and the test tubes were repetitively inclined to measure time (second) in which the fluidity disappeared.

[2] = system: extrinsic pathway coagulation; experiment: Prothrombin time (PT); settings: for PT: standard control 12.6
Description: (5) Prothrombin Time (PT):
The present method is a method for inspecting dynamics of extrinsic pathway coagulation. The present method has sensitivity to qualitative and quantitative abnormality in the factor II (prothrombin), the factor V, the factor VII, the factor X and the factor I (fibrinogen), and it is scarcely influenced by the […] and the factor VIII. First, normal (normal volunteer) blood citrate-collected (collected in a plastic test tube charged with 3.13 wt % sodium citrate of 1/10 volume) was subjected to centrifugal separation at 3000 rpm for 10 minutes to obtain supernatant plasma. The PT time was obtained by mixing plasma for inspection with a PT reagent (a mixed solution of tissue thromboplastin and calcium chloride) to measure fibrin-depositing time (second) (using an automatic measuring apparatus). The sample of the sulfated polysaccharide was added to the plasma for inspection in an addition concentration of 0.001 to 1 mg/ml, and normal plasma was used for a standard control.

[3] = system: intrinsic pathway coagulation; experiment: Activated partial thromboplastin time (APTT)
Description: (4) Activated Partial Thromboplastin Time (APTT):
The present method is a method for inspecting dynamics of intrinsic pathway coagulation. The present method has sensitivity to qualitative and quantitative abnormality in the factor XII, the factor XI, high molecular weight kininogen, prekallikrein, the factor IX, the factor VIII, the factor X, the factor V, the factor II (prothrombin) and the factor I (fibrinogen). First, normal (normal volunteer) blood citrate-collected (collected in a plastic test tube charged with 3.13 wt % sodium citrate of 1/10 volume) was subjected to centrifugal separation at 3000 rpm for 10 minutes to obtain supernatant plasma. The APTT time was obtained by mixing plasma for inspection with an APTT reagent and then measuring fibrin-depositing time (second) after adding a calcium chloride solution (using an automatic measuring apparatus). The sulfated polysaccharide was added to the plasma for inspection in an addition concentration of 0.001 to 1 mg/ml, and normal plasma was used for a standard control.

[4] = addition concentration 1 mg/ml in normal plasma, standard control 35 (30 in Example 1)
[5] = addition concentration 0.001 mg/ml in normal plasma
[6] = addition concentration 0.01 mg/ml in normal plasma
[7] = addition concentration 0.1 mg/ml in normal plasma
[8] = addition concentration 1 mg/ml in normal plasma
[9] = addition concentration 0.001 mg/ml in normal plasma, standard control 35
[10] = addition concentration 0.01 mg/ml in normal plasma, standard control 35
[11] = addition concentration 0.1 mg/ml in normal plasma, standard control 35
[12] = addition concentration 0.001 mg/ml
[13] = addition concentration 0.01 mg/ml
[14] = addition concentration 0.1 mg/ml

In the case of “chondroitin sulfate [reference compound]”, the “coagulation time of normal blood, extension (in words)” value ([1]; addition of 0.01 mg/ml) is reported as “not observed at all to be extended”.

With gellan sulfate [Example 1] the “PT time, extension (in words)” value ([2]; gellan sulfate added to plasma, versus sample without gellan sulfate) was “significant extension of the time was not observed” and the APTT [3, 4] was 95 s.

Work on gellan sulfate [Example 2] yielded a PT [2, 5] of 11.6 s, a PT [2, 6] of 11.7 s and a PT [2, 7] of 15.8 s. It also gave a PT [2, 8] of no less than 300 s, an APTT [3, 9] of 38.1 s and an APTT [3, 10] of 30 s. For the same substance, the APTT [3, 11] was no less than 300 s, the APTT [3, 4] was no less than 300 s and the “Normal blood coagulation time” value [1, 12] was 54 min. The “Normal blood coagulation time” value [1, 13] was 93 min, the “Normal blood coagulation time” value [1, 14] was 230 min and the “Normal blood coagulation time” value ([1]; addition concentration 1 mg/ml) was no less than 600 min.

gellan sulfate [Example 3] gave a PT [2, 5] of 11.3 s, a PT [2, 6] of 11.8 s and a PT [2, 7] of 19.3 s. The PT [2, 8] was no less than 300 s, the APTT [3, 9] was 49 s and the APTT [3, 10] was 103.5 s. The APTT [3, 11] was no less than 300 s, the APTT [3, 4] was no less than 300 s and the “Normal blood coagulation time” value [1, 12] was 58.9 min. The “Normal blood coagulation time” value [1, 13] was 138.8 min, the “Normal blood coagulation time” value [1, 14] was 216.3 min and the “Normal blood coagulation time” value ([1]; addition concentration 1 mg/ml) was no less than 600 min.

For gellan sulfate [Example 4], the PT [2, 5] was 13 s, the PT [2, 6] was 12 s and the PT [2, 7] was 14 s. The PT [2, 8] was no less than 300 s, the APTT [3, 9] was 45 s and the APTT [3, 10] was 45 s. For the same substance, the APTT [3, 11] was no less than 300 s, the APTT [3, 4] was no less than 300 s and the “Normal blood coagulation time” value [1, 12] was 39.9 min. The “Normal blood coagulation time” value [1, 13] was 72 min, the “Normal blood coagulation time” value [1, 14] was no less than 600 min and the “Normal blood coagulation time” value ([1]; addition concentration 1 mg/ml) was no less than 600 min.

In the case of “gellan sulfate [compound 1, reference compound]”, the “coagulation time of normal blood, extension (in words)” value ([1]; 1 mg/ml added) is reported as “not observed to be extended”.

In the case of heparin [reference compound], the PT [2, 5] is reported as 13 s, the PT [2, 6] is reported as 13 s and the PT [2, 7] is reported as no less than 300 s. It also gave a PT [2, 8] of no less than 300 s, an APTT [3, 9] of 50 s and an APTT [3, 10] of no less than 300 s. For the same substance, the APTT [3, 11] was no less than 300 s, the APTT [3, 4] was no less than 300 s and the “Normal blood coagulation time” value [1, 12] was 105.6 min. For the same substance, the “Normal blood coagulation time” value [1, 13] was no less than 600 min, the “Normal blood coagulation time” value [1, 14] was no less than 600 min and the “Normal blood coagulation time” value ([1]; addition concentration 1 mg/ml) was no less than 600 min.
